Source: the CheMixHub viscosity set
Values joined by “and” are separate entries in the source; they are usually repeats but may differ in a detail not shown here. Equal values may be shown once. ± gives the uncertainty stated by the source.

Assay: xn = mol fraction of the nth substance listed

CC(C)(C)O + O
viscosity (298.15 K, 101.33 kPa, x1 = 0.96): 4.37 ± 0.18 mPa·s and 4.41 ± 0.15 mPa·s | viscosity (298.15 K, 101.33 kPa, x1 = 0.9734): 4.408 ± 0.022 mPa·s | viscosity (303 K, 101 kPa, x2 = 0.3): 3.527 ± 0.021 mPa·s | viscosity (303 K, 101 kPa, x2 = 0.5): 3.881 ± 0.023 mPa·s | viscosity (303 K, 101 kPa, x2 = 0.65): 3.975 ± 0.023 mPa·s | viscosity (303 K, 101 kPa, x2 = 0.91): 2.475 ± 0.015 mPa·s | viscosity (303 K, 101 kPa, x2 = 0.95): 1.772 ± 0.011 mPa·s | viscosity (303.2 K, 101.33 kPa, x2 = 0.05): 3.236 ± 0.022 mPa·s | viscosity (303.2 K, 101.33 kPa, x2 = 0.1): 3.214 ± 0.022 mPa·s | viscosity (303.2 K, 101.33 kPa, x2 = 0.15): 3.247 ± 0.022 mPa·s | viscosity (303.2 K, 101.33 kPa, x2 = 0.2): 3.309 ± 0.023 mPa·s | viscosity (303.2 K, 101.33 kPa, x2 = 0.3): 3.455 ± 0.024 mPa·s | viscosity (303.2 K, 101.33 kPa, x2 = 0.4): 3.599 ± 0.025 mPa·s | viscosity (303.2 K, 101.33 kPa, x2 = 0.5): 3.743 ± 0.027 mPa·s | viscosity (303.2 K, 101.33 kPa, x2 = 0.6): 3.877 ± 0.029 mPa·s | viscosity (303.2 K, 101.33 kPa, x2 = 0.7): 3.836 ± 0.029 mPa·s | viscosity (303.2 K, 101.33 kPa, x2 = 0.8): 3.541 ± 0.027 mPa·s | viscosity (303.2 K, 101.33 kPa, x2 = 0.85): 3.182 ± 0.024 mPa·s | viscosity (303.2 K, 101.33 kPa, x2 = 0.9): 2.604 ± 0.02 mPa·s | viscosity (303.2 K, 101.33 kPa, x2 = 0.95): 1.738 ± 0.014 mPa·s | viscosity (304 K, 101 kPa, x2 = 0.75): 3.646 ± 0.021 mPa·s | viscosity (305 K, 101 kPa, x2 = 0.1): 3.026 ± 0.019 mPa·s | viscosity (308.15 K, 101 kPa, x1 = 0.05): 1.541 ± 0.011 mPa·s | viscosity (308.15 K, 101 kPa, x1 = 0.1): 2.188 ± 0.016 mPa·s | viscosity (308.15 K, 101 kPa, x1 = 0.2): 2.951 ± 0.026 mPa·s | viscosity (308.15 K, 101 kPa, x1 = 0.3): 3.186 ± 0.034 mPa·s | viscosity (308.15 K, 101 kPa, x1 = 0.4): 3.219 ± 0.041 mPa·s | viscosity (308.15 K, 101 kPa, x1 = 0.5): 3.116 ± 0.046 mPa·s | viscosity (308.15 K, 101 kPa, x1 = 0.6): 2.973 ± 0.05 mPa·s | viscosity (308.15 K, 101 kPa, x1 = 0.7): 2.837 ± 0.054 mPa·s | viscosity (308.15 K, 101 kPa, x1 = 0.8): 2.701 ± 0.057 mPa·s | viscosity (308.15 K, 101 kPa, x1 = 0.9): 2.635 ± 0.062 mPa·s | viscosity (308.15 K, 101 kPa, x1 = 0.95): 2.606 ± 0.064 mPa·s | viscosity (313 K, 101 kPa, x2 = 0.1): 2.146 ± 0.014 mPa·s | viscosity (313 K, 101 kPa, x2 = 0.3): 2.33 ± 0.015 mPa·s | viscosity (313 K, 101 kPa, x2 = 0.5): 2.586 ± 0.016 mPa·s | viscosity (313 K, 101 kPa, x2 = 0.65): 2.674 ± 0.016 mPa·s | viscosity (313 K, 101 kPa, x2 = 0.75): 2.587 ± 0.015 mPa·s | viscosity (313 K, 101 kPa, x2 = 0.91): 1.747 ± 0.011 mPa·s | viscosity (313 K, 101 kPa, x2 = 0.95): 1.287 ± 0.008 mPa·s | viscosity (313.15 K, 101 kPa, x1 = 0.05): 1.311 ± 0.009 mPa·s | viscosity (313.15 K, 101 kPa, x1 = 0.07): 1.54 ± 0.011 mPa·s | viscosity (313.15 K, 101 kPa, x1 = 0.1): 1.84 ± 0.014 mPa·s | viscosity (313.15 K, 101 kPa, x1 = 0.2): 2.453 ± 0.022 mPa·s | viscosity (313.15 K, 101 kPa, x1 = 0.3): 2.615 ± 0.028 mPa·s | viscosity (313.15 K, 101 kPa, x1 = 0.4): 2.618 ± 0.034 mPa·s | viscosity (313.15 K, 101 kPa, x1 = 0.5): 2.534 ± 0.038 mPa·s | viscosity (323 K, 101 kPa, x2 = 0.1): 1.471 ± 0.0096 mPa·s | viscosity (323 K, 101 kPa, x2 = 0.3): 1.623 ± 0.01 mPa·s | viscosity (323 K, 101 kPa, x2 = 0.5): 1.809 ± 0.011 mPa·s | viscosity (323 K, 101 kPa, x2 = 0.65): 1.889 ± 0.012 mPa·s | viscosity (323 K, 101 kPa, x2 = 0.75): 1.85 ± 0.011 mPa·s | viscosity (323 K, 101 kPa, x2 = 0.91): 1.306 ± 0.0081 mPa·s | viscosity (323 K, 101 kPa, x2 = 0.95): 0.9856 ± 0.0063 mPa·s | viscosity (323.15 K, 100 kPa, x1 = 0.1): 1.273 ± 0.053 mPa·s | viscosity (323.15 K, 100 kPa, x1 = 0.3): 1.834 ± 0.075 mPa·s | viscosity (323.15 K, 100 kPa, x1 = 0.4): 1.833 ± 0.075 mPa·s | viscosity (323.15 K, 100 kPa, x1 = 0.5): 1.696 ± 0.07 mPa·s | viscosity (323.15 K, 100 kPa, x1 = 0.75): 1.429 ± 0.059 mPa·s
